Values joined by “and” are separate entries in the source; they are usually repeats but may differ in a detail not shown here. Equal values may be shown once. Inconclusive results and toxic doses are left out. The calls were made as follows: active = survival T/C of 150% or more; inactive = T/C below 125% in these data.
System: P388 leukemia ip, CD2F1 mice, survival T/C
Experiment: NCI In Vivo Anticancer Drug Screen. Data for tumor model P388 Leukemia (intraperitoneal) in CD2F1 (CDF1) mice
Conditions: endpoint: median survival time, higher = longer survival
How it was run: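 Mice carrying the transplanted tumor received test compound or vehicle. Survival was recorded in each group, and the value is the treated-group measurement divided by that of the vehicle-treated control group.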

[1] = dose: 50.0 mg/kg/injection, schedule: Q01DX009 (ip), vehicle: saline with Tween-80
[2] = dose: 100.0 mg/kg/injection, schedule: Q01DX009 (ip), vehicle: saline with Tween-80
[3] = dose: 200.0 mg/kg/injection, schedule: Q01DX009 (ip), vehicle: saline with Tween-80
[4] = dose: 6.25 mg/kg/injection, schedule: Q01DX009 (ip), vehicle: saline
[5] = dose: 12.5 mg/kg/injection, schedule: Q01DX009 (ip), vehicle: saline
[6] = dose: 50.0 mg/kg/injection, schedule: Q01DX005 (ip), vehicle: saline with Tween-80
[7] = dose: 100.0 mg/kg/injection, schedule: Q01DX005 (ip), vehicle: saline with Tween-80
[8] = dose: 200.0 mg/kg/injection, schedule: Q01DX005 (ip), vehicle: saline with Tween-80

Measured: T/C

CC1c2ccoc2CC2C1C(O)C(O)C1C(C)(C)CCCC21C (stereo not drawn)
inactive: dose: 100.0 mg/kg/injection, schedule: Q04DX002 (ip), vehicle: suspension in saline 106 % of control | dose: 200.0 mg/kg/injection, schedule: Q04DX002 (ip), vehicle: suspension in saline 106 % of control | dose: 400.0 mg/kg/injection, schedule: Q04DX002 (ip), vehicle: suspension in saline 98 % of control

O/N=C/c1ccc2c(c1)OCO2
inactive: [1] 99 % of control | [2] 100 % of control | [3] 87 % of control

Cc1[nH][nH]c(=O)c1[N+](=O)[O-]
inactive: [1] 99 % of control | [2] 108 % of control | [3] 114 % of control

O=S(=O)(/N=C1/C=CC=CC1=C(N1CCOCC1)N1CCOCC1)c1ccccc1
inactive: dose: 50.0 mg/kg/injection, schedule: Q04DX003 (ip), vehicle: saline 104 % of control | dose: 100.0 mg/kg/injection, schedule: Q04DX003 (ip), vehicle: saline 111 % of control | dose: 200.0 mg/kg/injection, schedule: Q04DX003 (ip), vehicle: saline 105 % of control

Cc1ccc(S(=O)(=O)OC2CCCCC2c2ccccc2)cc1 (stereo not drawn)
inactive: dose: 6.25 mg/kg/injection, schedule: Q01DX001 (ip), vehicle: Klucel (hydroxypropylcellulose) (HPC) 102 % of control | dose: 12.5 mg/kg/injection, schedule: Q01DX001 (ip), vehicle: Klucel (hydroxypropylcellulose) (HPC) 116 % of control and 98 % of control | dose: 25.0 mg/kg/injection, schedule: Q01DX001 (ip), vehicle: Klucel (hydroxypropylcellulose) (HPC) 102 % of control and 90 % of control

CN(C)c1ccc(C=C2c3ccccc3C(=O)c3ccccc32)c(Cl)c1
inactive: [1] 100 % of control | [2] 91 % of control | [3] 94 % of control

C=C1C(=O)O[C@@H]2/C=C(\C)CC/C=C(/C)CC[C@@H]12
inactive: dose: 12.5 mg/kg/injection, schedule: Q04DX003 (ip), vehicle: Klucel (hydroxypropylcellulose) (HPC) 100 % of control | dose: 25.0 mg/kg/injection, schedule: Q04DX003 (ip), vehicle: Klucel (hydroxypropylcellulose) (HPC) 107 % of control | dose: 50.0 mg/kg/injection, schedule: Q04DX003 (ip), vehicle: Klucel (hydroxypropylcellulose) (HPC) 100 % of control | dose: 100.0 mg/kg/injection, schedule: Q04DX003 (ip), vehicle: Klucel (hydroxypropylcellulose) (HPC) 113 % of control

OC(C(=S)N1CCCC1)(c1ccccc1)c1ccccc1
inactive: dose: 50.0 mg/kg/injection, schedule: Q01DX009 (ip), vehicle: Klucel (hydroxypropylcellulose) (HPC) 103 % of control | dose: 100.0 mg/kg/injection, schedule: Q01DX009 (ip), vehicle: Klucel (hydroxypropylcellulose) (HPC) 103 % of control | dose: 200.0 mg/kg/injection, schedule: Q01DX009 (ip), vehicle: Klucel (hydroxypropylcellulose) (HPC) 100 % of control

O=C1c2cscc2C(=O)c2cscc21
inactive: dose: 12.5 mg/kg/injection, schedule: Q01DX009 (ip), vehicle: saline with Tween-80 98 % of control | dose: 25.0 mg/kg/injection, schedule: Q01DX009 (ip), vehicle: saline with Tween-80 100 % of control | [1] 96 % of control | [2] 94 % of control

c1ccc(Nc2ccncc2)cc1
inactive: dose: 1.56 mg/kg/injection, schedule: Q01DX009 (ip), vehicle: saline 95 % of control | dose: 3.12 mg/kg/injection, schedule: Q01DX009 (ip), vehicle: saline 95 % of control | [4] 100 % of control | [5] 100 % of control | dose: 25.0 mg/kg/injection, schedule: Q04DX003 (ip), vehicle: saline sonified 100 % of control | dose: 50.0 mg/kg/injection, schedule: Q04DX003 (ip), vehicle: saline sonified 90 % of control | dose: 100.0 mg/kg/injection, schedule: Q04DX003 (ip), vehicle: saline sonified 100 % of control

Cc1[nH]c(=O)[nH]c(=O)c1CCSSCCc1c(C)[nH]c(=O)[nH]c1=O
inactive: [6] 102 % of control | [7] 100 % of control | [8] 98 % of control

NC(=S)N/N=C/c1cccc(CC(O)(C(F)(F)F)C(F)(F)F)n1
inactive: dose: 12.5 mg/kg/injection, schedule: Q04DX003 (ip), vehicle: saline with Tween-80 100 % of control | dose: 25.0 mg/kg/injection, schedule: Q04DX003 (ip), vehicle: saline with Tween-80 87 % of control

O=C1CSC(c2c(F)cccc2F)N1c1nncs1 (stereo not drawn)
inactive: [6] 98 % of control | [7] 100 % of control | [8] 98 % of control

O=C(Nc1ccccn1)c1ccccc1S(=O)(=O)O
inactive: [6] 102 % of control | [7] 104 % of control | [8] 99 % of control

Nc1nn2nnnc2c2ccccc12
inactive: dose: 25.0 mg/kg/injection, schedule: Q04DX002 (ip), vehicle: saline 107 % of control | dose: 50.0 mg/kg/injection, schedule: Q04DX002 (ip), vehicle: saline 96 % of control | dose: 100.0 mg/kg/injection, schedule: Q04DX002 (ip), vehicle: saline 101 % of control and 89 % of control | dose: 400.0 mg/kg/injection, schedule: Q04DX002 (ip), vehicle: saline 92 % of control

CCOc1ccc(N=C2C=C(Nc3ccc(OCC)cc3)C(=Nc3ccc(OCC)cc3)C=C2Nc2ccc(OCC)cc2)cc1
inactive: dose: 60.0 mg/kg/injection, schedule: Q01DX005 (ip), vehicle: saline with Tween-80 96 % of control | dose: 120.0 mg/kg/injection, schedule: Q01DX005 (ip), vehicle: saline with Tween-80 95 % of control | dose: 240.0 mg/kg/injection, schedule: Q01DX005 (ip), vehicle: saline with Tween-80 92 % of control

CCN(CC)c1nc(Cl)nc(N(CC)CC)n1
inactive: dose: 25.0 mg/kg/injection, schedule: Q01DX005 (ip), vehicle: saline with Tween-80 99 % of control and 97 % of control | [6] 103 % of control [middle of 4 runs] | [7] 106 % of control and 101 % of control and 107 % of control | [8] 113 % of control [middle of 4 runs] | dose: 400.0 mg/kg/injection, schedule: Q01DX005 (ip), vehicle: saline with Tween-80 100 % of control

CCOC(c1ccc(OC)cc1)c1cc(C(C)(C)C)cc(C(C)(C)C)c1O (stereo not drawn)
inactive: dose: 50.0 mg/kg/injection, schedule: Q01DX005 (ip), vehicle: distilled water + alcohol 103 % of control | dose: 100.0 mg/kg/injection, schedule: Q01DX005 (ip), vehicle: distilled water + alcohol 105 % of control | dose: 200.0 mg/kg/injection, schedule: Q01DX005 (ip), vehicle: distilled water + alcohol 107 % of control

CNC(=O)c1ccccc1CNC(=S)Nc1cccc(C)c1
inactive: dose: 50.0 mg/kg/injection, schedule: Q01DX005 (ip), vehicle: Klucel (hydroxypropylcellulose) (HPC) 98 % of control | dose: 100.0 mg/kg/injection, schedule: Q01DX005 (ip), vehicle: Klucel (hydroxypropylcellulose) (HPC) 98 % of control | dose: 200.0 mg/kg/injection, schedule: Q01DX005 (ip), vehicle: Klucel (hydroxypropylcellulose) (HPC) 95 % of control

CCOC(=O)/C=C/C(=O)NNS(=O)(=O)CC(N)C(=O)O (stereo not drawn)
inactive: dose: 100.0 mg/kg/injection, schedule: Q04DX003 (ip), vehicle: acid diluted with saline 105 % of control | dose: 200.0 mg/kg/injection, schedule: Q04DX003 (ip), vehicle: acid diluted with saline 109 % of control

CCOC(=O)C1=C(c2ccccc2)Nc2ccccc2[S+]1C (stereo not drawn)
inactive: dose: 15.0 mg/kg/injection, schedule: Q01DX005 (ip), vehicle: saline 99 % of control | dose: 30.0 mg/kg/injection, schedule: Q01DX005 (ip), vehicle: saline 98 % of control | dose: 60.0 mg/kg/injection, schedule: Q01DX005 (ip), vehicle: saline 98 % of control and 96 % of control

COC1CC(O)(CCNc2ccc([N+](=O)[O-])cc2[N+](=O)[O-])C(O)C(CO)O1 (stereo not drawn)
inactive: dose: 20.0 mg/kg/injection, schedule: Q01DX001 (ip), vehicle: Klucel (hydroxypropylcellulose) (HPC) 100 % of control | dose: 40.0 mg/kg/injection, schedule: Q01DX001 (ip), vehicle: Klucel (hydroxypropylcellulose) (HPC) 93 % of control | dose: 80.0 mg/kg/injection, schedule: Q01DX001 (ip), vehicle: Klucel (hydroxypropylcellulose) (HPC) 94 % of control

CCOC(=O)C(C(C)=O)C(=O)C(C)(C)C (stereo not drawn)
inactive: [4] 112 % of control | [5] 102 % of control | dose: 25.0 mg/kg/injection, schedule: Q01DX009 (ip), vehicle: saline 102 % of control | [2] 91 % of control | [3] 104 % of control

Source: PubChem BioAssay AID330 (DTP/NCI, 2004)
